Drawing on BindingDB's records for doi:10.1007/s00213-002-1073-7 (WestfÄLische Wilhelms-Universit&Auml, 2002), this text covers Ki for six compounds.

“And” between values parts separate entries of the source, which are not always exact repeats. Equal values may be shown once.

Test [1] addresses 5-hydroxytryptamine receptor 1D (Homo sapiens, UniProt P28221).
In test [2] the target is T1, Alpha-2A adrenergic receptor (Homo sapiens, UniProt P08913).
T1 sequence (P08913 whole entry): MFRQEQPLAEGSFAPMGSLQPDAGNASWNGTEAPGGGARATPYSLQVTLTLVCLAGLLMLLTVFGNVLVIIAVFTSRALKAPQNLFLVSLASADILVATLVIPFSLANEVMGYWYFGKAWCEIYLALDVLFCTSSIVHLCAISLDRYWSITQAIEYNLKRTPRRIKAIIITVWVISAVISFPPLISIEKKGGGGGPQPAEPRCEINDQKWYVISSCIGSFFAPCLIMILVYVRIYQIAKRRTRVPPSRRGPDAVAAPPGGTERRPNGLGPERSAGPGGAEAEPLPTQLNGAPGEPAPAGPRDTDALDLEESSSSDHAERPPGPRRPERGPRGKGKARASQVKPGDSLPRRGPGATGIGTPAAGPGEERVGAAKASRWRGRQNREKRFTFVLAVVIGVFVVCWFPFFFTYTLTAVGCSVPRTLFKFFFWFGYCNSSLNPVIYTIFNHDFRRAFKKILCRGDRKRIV

Test [3] deals with Glutamate receptor ionotropic, NMDA 1 (Rattus norvegicus, UniProt P35439).
The target in test [4] is Sodium-dependent noradrenaline transporter (Homo sapiens, UniProt P23975).
Chain of Sodium-dependent noradrenaline transporter (P23975 whole entry): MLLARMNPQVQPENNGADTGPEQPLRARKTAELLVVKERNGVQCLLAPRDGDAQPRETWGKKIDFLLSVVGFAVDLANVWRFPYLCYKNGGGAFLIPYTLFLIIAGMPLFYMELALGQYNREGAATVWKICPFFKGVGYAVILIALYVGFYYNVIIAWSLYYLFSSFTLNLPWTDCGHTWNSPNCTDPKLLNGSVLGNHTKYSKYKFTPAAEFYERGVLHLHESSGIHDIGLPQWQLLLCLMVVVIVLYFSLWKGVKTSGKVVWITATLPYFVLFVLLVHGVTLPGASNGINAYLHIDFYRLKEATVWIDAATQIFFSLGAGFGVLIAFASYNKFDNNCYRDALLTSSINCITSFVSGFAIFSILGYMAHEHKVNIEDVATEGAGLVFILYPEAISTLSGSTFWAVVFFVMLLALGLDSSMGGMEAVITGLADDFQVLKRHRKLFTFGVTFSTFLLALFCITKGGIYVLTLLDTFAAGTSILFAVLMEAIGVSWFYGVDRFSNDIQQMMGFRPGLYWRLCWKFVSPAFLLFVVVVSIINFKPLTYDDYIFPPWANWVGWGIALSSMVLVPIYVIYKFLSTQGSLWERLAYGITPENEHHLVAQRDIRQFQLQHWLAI
For test [5], the target named is 5-hydroxytryptamine receptor 2C (Homo sapiens, UniProt P28335).
Chain of 5-hydroxytryptamine receptor 2C (Homo sapiens, UniProt P28335) (P28335 whole entry): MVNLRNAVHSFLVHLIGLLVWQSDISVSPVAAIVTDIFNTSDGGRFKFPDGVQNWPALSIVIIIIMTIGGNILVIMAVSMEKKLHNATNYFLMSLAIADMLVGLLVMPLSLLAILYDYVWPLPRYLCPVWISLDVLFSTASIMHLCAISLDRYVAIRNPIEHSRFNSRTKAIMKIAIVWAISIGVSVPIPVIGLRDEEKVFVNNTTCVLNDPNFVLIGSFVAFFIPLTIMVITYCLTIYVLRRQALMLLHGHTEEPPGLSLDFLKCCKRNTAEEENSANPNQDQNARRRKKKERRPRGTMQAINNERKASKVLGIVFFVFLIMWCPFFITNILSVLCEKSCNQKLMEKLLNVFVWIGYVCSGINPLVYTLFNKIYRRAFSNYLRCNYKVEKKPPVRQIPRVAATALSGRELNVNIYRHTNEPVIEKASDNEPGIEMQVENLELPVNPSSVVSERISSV
Test [6] has as its target Delta-type opioid receptor (Homo sapiens, UniProt P41143).
The next test deals with Vasopressin V2 receptor (Homo sapiens, UniProt P30518).
Chain of Vasopressin V2 receptor (P30518 whole entry): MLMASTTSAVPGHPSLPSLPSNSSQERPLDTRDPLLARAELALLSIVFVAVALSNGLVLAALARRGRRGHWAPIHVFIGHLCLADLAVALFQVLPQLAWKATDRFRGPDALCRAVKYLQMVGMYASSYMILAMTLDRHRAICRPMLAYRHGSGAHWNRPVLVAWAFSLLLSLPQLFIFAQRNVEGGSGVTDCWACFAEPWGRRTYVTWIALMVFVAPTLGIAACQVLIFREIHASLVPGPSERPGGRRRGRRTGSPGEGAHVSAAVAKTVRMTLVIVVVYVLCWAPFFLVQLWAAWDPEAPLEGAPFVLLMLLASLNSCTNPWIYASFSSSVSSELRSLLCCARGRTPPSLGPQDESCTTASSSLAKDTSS
Test [7] concerns the target T2, Alpha-2C adrenergic receptor (Homo sapiens, UniProt P18825).
T2 sequence (P18825 whole entry): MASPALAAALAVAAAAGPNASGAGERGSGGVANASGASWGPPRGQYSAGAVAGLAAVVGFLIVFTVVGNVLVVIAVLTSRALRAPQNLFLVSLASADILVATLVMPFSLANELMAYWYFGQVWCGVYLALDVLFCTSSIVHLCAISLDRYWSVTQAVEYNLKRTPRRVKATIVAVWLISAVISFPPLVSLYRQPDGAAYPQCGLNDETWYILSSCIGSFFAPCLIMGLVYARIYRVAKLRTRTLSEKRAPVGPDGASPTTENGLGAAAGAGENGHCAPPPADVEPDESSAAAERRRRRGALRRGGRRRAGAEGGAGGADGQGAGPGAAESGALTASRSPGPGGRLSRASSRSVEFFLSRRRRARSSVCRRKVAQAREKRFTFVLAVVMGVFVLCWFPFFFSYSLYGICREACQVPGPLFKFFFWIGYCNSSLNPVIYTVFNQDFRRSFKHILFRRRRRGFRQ

The target of a further test is Mu-type opioid receptor (Homo sapiens, UniProt P35372).
Chain of Mu-type opioid receptor (P35372 whole entry): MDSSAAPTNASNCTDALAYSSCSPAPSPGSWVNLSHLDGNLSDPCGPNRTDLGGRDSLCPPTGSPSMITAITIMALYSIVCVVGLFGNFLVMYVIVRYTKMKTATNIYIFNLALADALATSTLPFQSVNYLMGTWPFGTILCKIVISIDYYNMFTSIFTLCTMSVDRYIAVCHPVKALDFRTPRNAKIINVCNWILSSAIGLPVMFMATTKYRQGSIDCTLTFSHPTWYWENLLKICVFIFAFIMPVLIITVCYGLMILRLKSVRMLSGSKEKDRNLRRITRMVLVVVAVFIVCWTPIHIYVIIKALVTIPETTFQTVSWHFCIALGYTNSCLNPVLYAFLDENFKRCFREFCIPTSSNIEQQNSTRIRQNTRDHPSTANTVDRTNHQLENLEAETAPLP
For test [8], the target named is T3, Alpha-1A adrenergic receptor (Homo sapiens, UniProt P35348).
T3 sequence (P35348 whole entry): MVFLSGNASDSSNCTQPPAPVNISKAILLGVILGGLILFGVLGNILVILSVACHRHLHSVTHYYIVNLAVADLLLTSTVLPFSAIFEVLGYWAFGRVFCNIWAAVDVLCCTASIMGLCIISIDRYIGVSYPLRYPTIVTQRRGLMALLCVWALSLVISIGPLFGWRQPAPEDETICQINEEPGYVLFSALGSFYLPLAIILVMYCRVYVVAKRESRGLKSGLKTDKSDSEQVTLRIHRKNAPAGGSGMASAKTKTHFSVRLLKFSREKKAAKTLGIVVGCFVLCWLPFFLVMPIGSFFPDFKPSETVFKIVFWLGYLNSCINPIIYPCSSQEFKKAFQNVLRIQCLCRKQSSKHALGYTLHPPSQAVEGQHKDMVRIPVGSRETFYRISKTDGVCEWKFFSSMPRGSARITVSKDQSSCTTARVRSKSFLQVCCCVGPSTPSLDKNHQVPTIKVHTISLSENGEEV

Test [9] deals with 5-hydroxytryptamine receptor 1B (Homo sapiens, UniProt P28222).
Chain of 5-hydroxytryptamine receptor 1B (P28222 whole entry): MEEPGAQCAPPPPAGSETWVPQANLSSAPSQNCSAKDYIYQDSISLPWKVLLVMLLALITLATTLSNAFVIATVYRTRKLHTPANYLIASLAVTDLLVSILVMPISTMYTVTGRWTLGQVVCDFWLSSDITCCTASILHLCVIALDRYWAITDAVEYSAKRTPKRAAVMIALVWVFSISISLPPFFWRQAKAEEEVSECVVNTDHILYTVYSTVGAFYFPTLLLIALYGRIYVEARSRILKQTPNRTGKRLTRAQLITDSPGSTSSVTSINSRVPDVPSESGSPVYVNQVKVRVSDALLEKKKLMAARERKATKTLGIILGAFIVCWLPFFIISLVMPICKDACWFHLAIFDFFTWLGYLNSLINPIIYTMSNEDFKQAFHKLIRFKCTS
Test [10] addresses T4, 5-hydroxytryptamine receptor 2C (Rattus norvegicus, UniProt P08909).
T4 sequence (P08909 whole entry): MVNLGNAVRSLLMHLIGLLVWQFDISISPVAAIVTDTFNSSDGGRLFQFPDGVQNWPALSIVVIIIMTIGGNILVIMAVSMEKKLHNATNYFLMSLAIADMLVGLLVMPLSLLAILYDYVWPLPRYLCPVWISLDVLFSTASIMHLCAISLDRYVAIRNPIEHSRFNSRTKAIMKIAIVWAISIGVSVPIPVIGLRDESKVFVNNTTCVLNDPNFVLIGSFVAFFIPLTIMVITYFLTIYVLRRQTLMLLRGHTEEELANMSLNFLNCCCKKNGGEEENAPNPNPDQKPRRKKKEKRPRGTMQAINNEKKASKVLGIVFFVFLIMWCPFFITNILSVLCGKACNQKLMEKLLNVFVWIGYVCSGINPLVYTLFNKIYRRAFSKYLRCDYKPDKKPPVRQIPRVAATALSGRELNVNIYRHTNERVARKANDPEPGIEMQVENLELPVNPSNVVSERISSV

The target in test [11] is Delta-type opioid receptor (Sus scrofa, UniProt P79291).
Chain of Delta-type opioid receptor (Sus scrofa, UniProt P79291) (P79291 whole entry): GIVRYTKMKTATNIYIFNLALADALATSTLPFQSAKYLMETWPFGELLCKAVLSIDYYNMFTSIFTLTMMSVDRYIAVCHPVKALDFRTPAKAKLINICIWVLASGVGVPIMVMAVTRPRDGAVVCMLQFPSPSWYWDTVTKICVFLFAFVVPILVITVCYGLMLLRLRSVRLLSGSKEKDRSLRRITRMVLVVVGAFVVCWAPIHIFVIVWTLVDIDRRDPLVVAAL
Test [12] addresses Gamma-aminobutyric acid receptor subunit alpha-1 (Rattus norvegicus, UniProt P62813).
The target of test [13] is Sodium-dependent serotonin transporter (Homo sapiens, UniProt P31645).
Chain of Sodium-dependent serotonin transporter (P31645 whole entry): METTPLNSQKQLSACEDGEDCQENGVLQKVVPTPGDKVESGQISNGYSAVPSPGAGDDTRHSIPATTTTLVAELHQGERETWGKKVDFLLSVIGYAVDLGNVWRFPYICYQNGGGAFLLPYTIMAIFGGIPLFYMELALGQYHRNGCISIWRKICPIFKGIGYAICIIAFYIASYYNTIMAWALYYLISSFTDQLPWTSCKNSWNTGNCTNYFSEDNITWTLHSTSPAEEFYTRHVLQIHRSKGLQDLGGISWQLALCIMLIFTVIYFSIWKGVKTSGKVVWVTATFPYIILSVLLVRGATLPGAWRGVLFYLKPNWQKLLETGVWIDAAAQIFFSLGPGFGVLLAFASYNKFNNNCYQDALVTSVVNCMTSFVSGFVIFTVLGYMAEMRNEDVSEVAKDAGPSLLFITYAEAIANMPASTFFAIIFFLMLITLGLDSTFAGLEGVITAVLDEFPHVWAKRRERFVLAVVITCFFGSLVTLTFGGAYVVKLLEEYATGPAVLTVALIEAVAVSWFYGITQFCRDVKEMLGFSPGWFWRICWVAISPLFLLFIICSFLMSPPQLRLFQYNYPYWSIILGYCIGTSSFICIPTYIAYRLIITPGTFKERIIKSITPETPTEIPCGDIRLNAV

Chain of Gamma-aminobutyric acid receptor subunit alpha-1 (P62813 whole entry): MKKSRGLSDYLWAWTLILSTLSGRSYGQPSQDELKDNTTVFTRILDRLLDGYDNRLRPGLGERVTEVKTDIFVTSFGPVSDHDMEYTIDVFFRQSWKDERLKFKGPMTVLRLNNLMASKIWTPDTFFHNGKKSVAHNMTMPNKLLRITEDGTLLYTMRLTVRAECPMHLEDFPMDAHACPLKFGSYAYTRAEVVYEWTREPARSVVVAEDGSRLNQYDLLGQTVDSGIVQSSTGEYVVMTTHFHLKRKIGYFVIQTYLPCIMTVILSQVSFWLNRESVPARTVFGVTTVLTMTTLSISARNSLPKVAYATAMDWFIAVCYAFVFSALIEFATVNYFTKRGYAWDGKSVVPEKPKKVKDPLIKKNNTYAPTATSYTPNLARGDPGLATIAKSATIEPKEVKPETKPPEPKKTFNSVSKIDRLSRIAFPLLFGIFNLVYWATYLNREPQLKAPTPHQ
Chain of 5-hydroxytryptamine receptor 1D (P28221 whole entry): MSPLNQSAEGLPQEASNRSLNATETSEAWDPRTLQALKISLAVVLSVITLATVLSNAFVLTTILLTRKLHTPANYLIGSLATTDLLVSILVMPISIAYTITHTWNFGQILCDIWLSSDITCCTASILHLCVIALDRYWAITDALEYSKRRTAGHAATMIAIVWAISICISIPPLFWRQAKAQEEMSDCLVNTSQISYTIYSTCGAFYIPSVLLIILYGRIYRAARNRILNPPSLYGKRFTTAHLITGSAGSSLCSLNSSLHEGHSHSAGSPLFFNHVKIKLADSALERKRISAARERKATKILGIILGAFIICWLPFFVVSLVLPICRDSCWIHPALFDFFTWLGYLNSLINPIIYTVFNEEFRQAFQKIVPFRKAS
Chain of Delta-type opioid receptor (Homo sapiens, UniProt P41143) (P41143 whole entry): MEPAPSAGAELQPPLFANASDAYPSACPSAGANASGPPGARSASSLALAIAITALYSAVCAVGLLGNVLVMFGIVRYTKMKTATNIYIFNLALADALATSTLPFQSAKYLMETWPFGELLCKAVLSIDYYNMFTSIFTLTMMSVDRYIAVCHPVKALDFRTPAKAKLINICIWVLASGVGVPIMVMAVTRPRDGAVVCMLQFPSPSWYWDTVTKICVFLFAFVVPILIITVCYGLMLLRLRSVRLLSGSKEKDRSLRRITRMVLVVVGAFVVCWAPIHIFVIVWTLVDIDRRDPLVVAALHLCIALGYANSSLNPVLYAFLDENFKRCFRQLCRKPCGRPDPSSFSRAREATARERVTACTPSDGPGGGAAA

Usually Ki stands for a dissociation constant, usually derived from enzyme kinetics or from competition with a known ligand. Low readings indicate a stronger hold on the target, high ones a looser hold on the target. On to `O=c1cc(O)cc2oc(-c3ccc(O)c(-c4c(O)cc(O)c5c(=O)cc(-c6ccc(O)cc6)oc45)c3)cc(O)c1-2`, for which the Ki was over 10 µM in [1]; over 10 µM in [2]; over 10 µM in test [3]; over 10 µM in test [4]; 2.56 µM in [5]; 0.0365 µM in test [6]. For the same compound, the Ki at Vasopressin V2 receptor is over 10 µM; in test [7] it was over 10 µM; on Mu-type opioid receptor, over 10 µM; in test [8] it was over 10 µM; in [9], 4.09 µM.

In the case of `CC(C)=CCC[C@]1(C)[C@@H](CC=C(C)C)C[C@]2(CC=C(C)C)C(=O)C(CC=C(C)C)C(=O)[C@]1(C(=O)C(C)C)C2=O` (some centres not stated), the Ki in [1], in test [2], in test [10], in [3], in [4] and in [11] was over 10 µM in each case. Further, the Ki (at Vasopressin V2 receptor; in test [7]; on Mu-type opioid receptor; in [8]; in test [12]) was over 10 µM throughout.

In the case of `C[C@@H]1O[C@@H](Oc2c(-c3ccc(O)c(O)c3)oc3cc(O)cc(=O)c-3c2O)[C@H](O)[C@H](O)[C@H]1O`, the Ki in test [1], in test [2], in [10], in test [3], in test [4] and in test [11] was over 10 µM in each case. Also, the Ki (in [13]; at Vasopressin V2 receptor; in [7]; on Mu-type opioid receptor; in test [8]; in [12]) was over 10 µM throughout.

For `O=c1c(O)c(-c2ccc(O)c(O)c2)oc2cc(O)cc(O)c12` [2-(3,4-dihydroxyphenyl)-3,5,7-trihydroxy-chromone;hydrate], the Ki in test [1], in [2], in [10], in test [11] and in test [7] was over 10 µM each time.

For the compound `C[C@@H]1O[C@@H](OC[C@H]2O[C@@H](Oc3c(-c4ccc(O)c(O)c4)oc4cc(O)cc(O)c4c3=O)[C@H](O)[C@@H](O)[C@@H]2O)[C@H](O)[C@H](O)[C@H]1O` [3-Rhamnoglucosylquercetin], the Ki in [1] was over 10 µM; in test [2] it was 9.34 µM; in test [10] it was over 10 µM; in test [3], over 10 µM; in [4] it was over 10 µM; in test [11] it was over 10 µM. Moreover, the Ki in test [13] is over 10 µM; on Vasopressin V2 receptor, over 10 µM; in [7], 9.64 µM; at Mu-type opioid receptor, over 10 µM; in [8] it was over 10 µM; in test [12] it was over 10 µM.

For the compound `O=c1cc(O)cc2oc(-c3ccc(O)c(O)c3)c(OC3OC(CO)C(O)C(O)C3O)c(O)c1-2` (configuration not stated) [NSC_5318390], the inhibitory constant (Ki) in [1], in test [10], in [3], in [4], in test [11] and in [13] was over 10 µM throughout. Further, the Ki is over 10 µM on Vasopressin V2 receptor; > 10 µM and 4.06 µM in test [7]; over 10 µM on Mu-type opioid receptor; over 10 µM in [8]; over 10 µM in [12].
